According to ChEMBL document CHEMBL1129195, “New antithrombotic RGD-mimetics with high bioavailability” (1996):

How the values were obtained:
[1] = test system: Monkey; experiment: Ex vivo inhibition of collagen-induced platelet aggregation in cynomolgus monkey after p.o. administration.; type: functional; conditions: Cercopithecidae, in Macaca fascicularis, po
[2] = test system: Cavia porcellus; experiment: Ex vivo inhibition of collagen-induced platelet aggregation in guinea pig after p.o. administration.
[3] = test system: Cavia porcellus; experiment: Ex vivo inhibition of collagen-induced platelet aggregation in guinea pig after i.v. administration.; type: functional; conditions: iv
[4] = test system: Monkey; experiment: Ex vivo inhibition of collagen-induced platelet aggregation in cynomolgus monkey after i.v. administration.; type: functional; conditions: Cercopithecidae, in Macaca fascicularis, iv

ED50 [2] [mg/kg]	Structure (SMILES)	ED50 [1] [mg/kg]	ED50 [3] [mg/kg]	ED50 [4] [mg/kg]
> 10	CCOC(=O)CCN1CCN(C[C@H]2CN(c3ccc(C(=N)NC(=O)c4ccccc4)cc3)C(=O)O2)CC1			
< 1	CCOC(=O)CN1CCN(C[C@@H]2CN(c3ccc(C(=N)NC(=O)c4ccc(OC)cc4)cc3)C(=O)O2)CC1	> 1		
> 1	CCOC(=O)CN1CCN(C[C@H]2CN(c3ccc(C(=N)NC(=O)c4ccccc4)cc3)C(=O)O2)CC1			
1	CC(C)(C)OC(=O)CN1CCN(C[C@@H]2CN(c3ccc(C(=N)NC(=O)c4ccccc4)cc3)C(=O)O2)CC1	> 1	0.4	
> 1	CCOC(=O)CCN1CCN(C[C@@H]2CN(c3ccc(C(=N)NC(=O)c4ccccc4)cc3)C(=O)O2)CC1			
< 1	CCOC(=O)CN1CCN(C[C@@H]2CN(c3ccc(C(=N)NC(=O)OCc4ccccc4)cc3)C(=O)O2)CC1	> 1		
0.32	CCOC(=O)CN1CCN(C[C@@H]2CN(c3ccc(C(=N)NC(=O)c4ccccc4)cc3)C(=O)O2)CC1	1.3	0.09	0.13
3	CCOC(=O)CC1CCN(CC2CN(c3ccc(C(=N)NC(=O)c4ccccc4)cc3)C(=O)O2)CC1 (configuration not stated)			
0.2	CCOC(=O)CN1CCN(CC2CN(c3ccc(C(=N)NC(=O)Oc4ccccc4)cc3)C(=O)O2)CC1 (configuration not stated)			
< 1	CCOC(=O)CN1CCN(C[C@@H]2CN(c3ccc(C(=N)NC(=O)c4cccc(C(F)(F)F)c4)cc3)C(=O)O2)CC1	> 1		
< 1	CCOC(=O)CN1CCN(CC2CN(c3ccc(C(=N)NC(=O)c4ccco4)cc3)C(=O)O2)CC1 (configuration not stated)	> 1		
> 10	CC(C)(C)OC(=O)CCN1CCN(CC2CN(c3ccc(C(=N)NC(=O)c4ccccc4)cc3)C(=O)O2)CC1 (configuration not stated)			
3	CCOC(=O)CC1(O)CCN(CC2CN(c3ccc(C(=N)NC(=O)c4ccccc4)cc3)C(=O)O2)CC1 (configuration not stated)			

The next lines start with the compound.

Structure (SMILES)	ED50 [2] [mg/kg]	ED50 [1] [mg/kg]	ED50 [3] [mg/kg]	ED50 [4] [mg/kg]
CCOC(=O)CN1CCN(C[C@@H]2CN(c3ccc(C(=N)NC(=O)OCC)cc3)C(=O)O2)CC1	0.17	0.7		
CC(=O)O/N=C(/N)c1ccc(N2C[C@@H](CN3CCN(CC(=O)O)CC3)OC2=O)cc1	> 10			
N/C(=N/C(=O)c1ccccc1)c1ccc(N2C[C@@H](CN3CCN(CC(=O)O)CC3)OC2=O)cc1	> 10			
COC(=O)CN1CCN(C[C@@H]2CN(c3ccc(C(=N)NC(=O)OC)cc3)C(=O)O2)CC1	0.1	0.8		
CCOC(=O)CCN1CCN(CC2CN(c3ccc(C(=N)NC(=O)OC)cc3)C(=O)O2)CC1 (configuration not stated)	> 10			
COC(=O)/N=C(/N)c1ccc(N2CC(CN3CCN(CC(=O)OC(C)(C)C)CC3)OC2=O)cc1 (configuration not stated)	> 1			
CCOC(=O)CN1CCN(C[C@@H]2CN(c3ccc(C(=N)N)cc3)C(=O)O2)CC1	> 1		0.08	
CCOC(=O)CN1CCN(C[C@@H]2CN(c3ccc(C(=N)NC(=O)OC)cc3)C(=O)O2)CC1 [GANTOFIBAN]	0.2	0.07		0.5
CCOC(=O)C1CCN(CC2CN(c3ccc(C(=N)NC(=O)c4ccccc4)cc3)C(=O)O2)CC1 (configuration not stated)	10			
CCOC(=O)CN1CCN(CC2CN(c3ccc(C(=N)NC(=O)c4cccnc4)cc3)C(=O)O2)CC1 (configuration not stated)			1	
CCOC(=O)CN1CCN(C[C@@H]2CN(c3ccc(C(=N)NC(=O)C(C)C)cc3)C(=O)O2)CC1	0.4	1.3		
CC(C)(C)OC(=O)CN1CCN(C[C@@H]2CN(c3ccc(C(=N)N)cc3)C(=O)O2)CC1			1	
CCOC(=O)CN1CCN(CC2CN(c3ccc(C(=N)NC(=O)OC)cc3)C(=O)O2)CC1 (configuration not stated)	0.4		0.4	
